Results: ChEMBL document CHEMBL4665774, “Design, synthesis and biological evaluation of triaryl compounds as novel 20S proteasome inhibitors” (Bioorg Med Chem Lett, 2020)

Tests used:
[1] = target: T1, Proteasome Macropain subunit MB1 (Homo sapiens, UniProt P28074); assay: Inhibition of human 20S proteasome beta 5
T1 sequence (P28074 whole entry): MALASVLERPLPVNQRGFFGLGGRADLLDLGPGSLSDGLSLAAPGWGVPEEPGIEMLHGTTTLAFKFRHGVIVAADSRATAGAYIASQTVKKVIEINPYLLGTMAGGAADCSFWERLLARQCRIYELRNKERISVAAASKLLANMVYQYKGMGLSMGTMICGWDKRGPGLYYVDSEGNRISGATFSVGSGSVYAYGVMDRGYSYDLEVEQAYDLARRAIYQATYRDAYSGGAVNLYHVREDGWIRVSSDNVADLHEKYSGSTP

MDA-MB-468 = assay: Antiproliferative activity against human MDA-MB-468 cells assessed as reduction in cell viability by SRB assay
[2] = target: T2, Proteasome Macropain subunit MB1 (Homo sapiens) (UniProt P28074); assay: Inhibition of human 20S proteasome beta 5 at 10 uM relative to control
T2 sequence (whole entry): T1 sequence (P28074 whole entry)

Homo sapiens = species: Homo sapiens; assay: Inhibition of human 20S proteasome beta 5i subunit at 10 microM relative to control

SMILES	IC50 [1]	IC50 (MDA-MB-468)	inhibition [2]	also measured
CC(C)N(Cc1ccc(-c2cccnc2)cc1)C(=O)COc1ccc(Oc2ccccc2)cc1	1.37 µM	> 40 µM		
CC(C)N(Cc1ccc(-c2cccs2)cc1)C(=O)COc1ccc(Oc2ccccc2)cc1			< 30%	
CC(C)N(Cc1nc(-c2ccco2)no1)C(=O)c1cnc2ccccc2n1			< 30%	
CCCc1ccc(OCC(=O)N(Cc2ccc(-c3cccnc3)cc2)C(C)C)cc1	1.14 µM			
CCCc1ccc(OCC(=O)N(Cc2nc(-c3cccs3)no2)C(C)C)cc1	0.18 µM	27 µM		inhibition (Homo sapiens): 25.3%
CC(C)N(Cc1nc(-c2ccco2)no1)C(=O)c1ccc2ccccc2n1			< 30%	
CC(C)N(Cc1cccc(-c2ccco2)c1)C(=O)c1cc2ccccc2o1	47.3 µM			
CC(C)N(Cc1cccc(-c2cccs2)c1)C(=O)c1ccc2ccccc2n1	3.36 µM	31.9 µM		
CC(C)N(Cc1cccc(-c2cncnc2)c1)C(=O)c1cc2ccccc2o1			< 30%	
CCCc1ccc(OCC(=O)N(Cc2nc(-c3ccco3)no2)C(C)C)cc1	0.12 µM	38.8 µM		inhibition (Homo sapiens): 7.3%
CC(C)N(Cc1nc(-c2cccs2)no1)C(=O)c1cc2ccccc2o1	0.39 µM	> 40 µM		
CCCc1ccc(OCC(=O)N(Cc2cccc(-c3cccnc3)c2)C(C)C)cc1	1.08 µM	19.3 µM		
CCCc1ccc(OCC(=O)N(Cc2nc(-c3ccc4ccccc4c3)no2)C(C)C)cc1	4.31 µM			
CC(C)N(Cc1nc(-c2ccco2)no1)C(=O)COc1ccc(Oc2ccccc2)cc1	14.7 µM			
CC(C)N(Cc1nc(-c2ccco2)no1)C(=O)c1cc2ccccc2o1	0.61 µM	> 40 µM		
CC(C)N(Cc1cncc(-c2cncnc2)c1)C(=O)c1cc2ccccc2o1			< 30%	

SMILES	IC50 [1]	IC50 (MDA-MB-468)	inhibition [2]	also measured
CC(C)N(Cc1nc(-c2cccnc2)no1)C(=O)COc1ccc(Oc2ccccc2)cc1	1.61 µM	6.8 µM		
CCCc1ccc(OCC(=O)N(Cc2ccc(-c3cccs3)cc2)C(C)C)cc1	33.5 µM			
CCCc1ccc(OCC(=O)N(Cc2cncc(-c3cncnc3)c2)C(C)C)cc1			< 30%	
CCCc1ccc(OCC(=O)N(Cc2cncc(-c3cccnc3)c2)C(C)C)cc1			< 30%	
CCCc1ccc(OCC(=O)N(Cc2nc(-c3ccc4ccccc4n3)no2)C(C)C)cc1	0.88 µM	35 µM		
CCCc1ccc(OCC(=O)N(Cc2nc(-c3cccnc3)no2)C(C)C)cc1		7.6 µM		
CCCc1ccc(OCC(=O)N(Cc2cccc(-c3ccco3)c2)C(C)C)cc1	10.7 µM			
CCCc1ccc(OCC(=O)N(Cc2cccc(-c3cncnc3)c2)C(C)C)cc1	2.27 µM	30.2 µM		
CC(C)N(Cc1cccc(-c2ccco2)c1)C(=O)c1ccc2ccccc2n1	61.6 µM			
CC(C)N(Cc1cncc(-c2cccnc2)c1)C(=O)c1cc2ccccc2o1			< 30%	
CC(C)N(Cc1nc(-c2ccc3ccccc3n2)no1)C(=O)c1cc2ccccc2o1			< 30%	
CC(C)N(Cc1cccc(-c2cccnc2)c1)C(=O)c1cc2ccccc2o1	20.2 µM			
CC(C)N(Cc1cccc(-c2cccs2)c1)C(=O)c1cc2ccccc2o1			< 30%	
CC(C)N(Cc1nc(-c2ccc3ccccc3c2)no1)C(=O)c1cc2ccccc2o1			< 30%	
CCCc1ccc(OCC(=O)N(Cc2cccc(-c3cccs3)c2)C(C)C)cc1	9.45 µM			
